Measurements taken from paper PMC10102027, “Helquat dyes targeting G-quadruplexes as a new class of anti-HIV-1 inhibitors” (Scientific Reports, 2023).

How the values were obtained:
Details in all cases: 4 μM compound, excitation 280 nm
ds G4 LTR = assay: Light-up experiment, ds G4 LTR; assay type: binding, HIV-1
Protocol: (§1) The intensity of fluorescence measured after the incubation with both oligonucleotides incompetent of G-quadruplex formation was almost identical, with the maximum intensity 2.5 times lower than that of the G-quadruplex-forming oligonucleotide (wt). […] To examine the specificity of ligand 12, we have repeated the light-up experiment with single-stranded G4 LTR in parallel with double-stranded G4 LTR and additional G-quadruplexes (c-myc, c-kit1 and h-telo). […] To further evaluate the specificity of ligand 12, we performed the light-up titration experiment incubating compound 12 with serial dilutions (1:1) of oligonucleotides (ss G4 LTR wild type, G4 c-myc and c-kit1) spanning final concentrations 2 to 0.002 μM (Supplement Fig. S3B). […] This can indicate a slight preference of ligand 12 for ss G4 LTR than for c-myc at lower oligonucleotide concentrations.
(§2) The selected compounds were incubated in the presence of the G4 LTR wild-type (wt) oligonucleotide, the G4 LTR M4 + M5 oligonucleotide containing mutations that disabled G-quadruplex formation (described previously[41]), and the G4 LTR scrambled-sequence oligonucleotide, or the buffer-only control. The compounds were tested at a compound:oligonucleotide ratio of 2:1 (4 μM compounds and 2 μM oligonucleotide) in PBS in a 384-well plate. Emission spectra were measured after excitation at 280 nm in a Tecan Infinite M1000 plate reader. […]

c-myc G-quadruplex = assay: Light-up experiment, c-myc; assay type: binding
Protocol: as §1, §2

c-kit1 G-quadruplex = assay: Light-up experiment, c-kit1; assay type: binding
Protocol: as §1, §2

h-telo G-quadruplex = assay: Light-up experiment, h-telo; assay type: binding
Protocol: as §1, §2

For `Cn1cc(/C=C/c2cc(/C=C/c3cn(C)c4ccccc34)[n+]3c(c2)-c2c(ccc4c2-c2cccc[n+]2CCC4)CCC3)c2ccccc21` [Compound 12], the fluorescence light-up (ds G4 LTR) was “very weak fluorescence”, the fluorescence light-up (c-myc G-quadruplex) was “strong fluorescence” and the fluorescence light-up (c-kit1 G-quadruplex) was “strong fluorescence”. The fluorescence light-up (h-telo G-quadruplex) was “low fluorescence”.
